Assay results from patent US6762180B1, “Substituted indolines which inhibit receptor tyrosine kinases” (Boehringer Ingelheim Pharma KG, priority 1999, dated 2004).

Test system: Human umbilical endothelial cells (HUVEC)
Assay: Inhibition of VEGF165-stimulated HUVEC proliferation (3H-thymidine incorporation)
Type: cell-based
Settings: HUVEC starved 16 hours, stimulated with 5 ng/ml VEGF165 and 10 μg/ml heparin, 76 hours incubation, then 16 hours 3H-thymidine
Method: Human umbilical endothelial cells (HUVEC) were cultivated in IMDM (Gibco BRL), supplemented with 10% foetal calf serum (FBS) (Sigma), 50 μM of β-mercaptoethanol (Fluka), standard antibiotics, 15 μg/ml of endothelial cell growth factor (ECGS, Collaborative Biomedical Products) and 100 μg/ml of heparin (Sigma) on gelatine-coated culture dishes (0.2% gelatine, Sigma) at 37° C., under 5% CO2 in a water-saturated atmosphere.
In order to investigate the inhibitory activity of the compounds according to the invention the cells were starved for 16 hours, i.e. kept in culture medium without growth factors (ECGS+heparin). The cells were detached from the culture dishes using trypsin/EDTA and washed once in serumontaining medium. Then they were seeded out in amounts of 2.5×10^3 cells per well.
The proliferation of the cells was stimulated with 5 ng/ml of VEGF165 (vascular endothelial growth factor; H. Weich, GBF Braunschweig) and 10 μg/ml of heparin. As a control, 6 wells in each dish were not stimulated.
The compounds according to the invention were dissolved in 100% dimethylsulphoxide and added to the cultures in various dilutions in triplicate, the maximum dimethyl sulphoxide concentration being 0.3%.
The cells were incubated for 76 hours at 37° C., then for a further 16 hours ^3H-thymidine (0.1 μCi/well, Amersham) was added in order to determine the DNA synthesis. Then the radioactively labelled cells were immnobilised on filter mats and the radioactivity incorporated was measured in a β-counter. In order to determine the inhibitory activity of the compounds according to the invention the mean value of the non-stimulated cells was subtracted from the mean value of the factor-stimulated cells (in the presence or absence of the compounds according to the invention).
The relative cell proliferation was calculated as a percentage of the control (HUVEC without inhibitor) and the concentration of active substance which inhibits the proliferation of the cells by 50% (IC50) was determined.

Row | SMILES | IC50 [nM]
1 | CCOC(=O)c1ccc2c(c1)NC(=O)/C2=C(\Nc1ccc(CN2CCCCC2)cc1)c1ccccc1 [(a), 3-Z-[1-(4-(piperidin-1-yl-methyl)-anilino)-1-phenyl-methylene]-6-ethoxycarbonyl-2-indolinone] | 40
2 | NC(=O)c1ccc2c(c1)NC(=O)/C2=C(\Nc1ccc(CN2CCCCC2)cc1)c1ccccc1 [(b), 3-Z-[1-(4-(piperidin-1-yl-methyl)-anilino)-1-phenyl-methylene]-6-carbamoyl-2-indolinone] | 350
3 | COC(=O)c1ccc2c(c1)NC(=O)/C2=C(\Nc1ccc(CN2CCCCC2)cc1)c1ccccc1 [(c), 3-Z-[1-(4-(piperidin-1-yl-methyl)-anilino)-1-phenyl-methylene]-6-methoxycarbonyl-2-indolinone] | 10
4 | CCOC(=O)c1ccc2c(c1)NC(=O)/C2=C(\Nc1ccc(CN(C)C)cc1)c1ccccc1 [(d), 3-Z-[1-(4-(dimethylaminomethyl)-anilino)-1-phenyl-methylene]-6-ethoxycarbonyl-2-indolinone] | 20
5 | CCOC(=O)c1ccc2c(c1)NC(=O)/C2=C(\Nc1ccc(CN2C(C)CCCC2C)cc1)c1ccccc1 (centres unmarked) [(e), 3-Z-[1-(4-((2,6-dimethyl-piperidin-1-yl)-methyl)-anilino)-1-phenyl-methylene]-6-ethoxycarbonyl-2-indolinone] | 50
6 | CCOC(=O)c1ccc2c(c1)NC(=O)/C2=C(\Nc1ccc(N(CCN(C)C)C(C)=O)cc1)c1ccccc1 [(f), 3-Z-[1-(4-(N-(2-dimethylamino-ethyl)-N-acetyl-amino)-anilino)-1-phenyl-methylene]-6-ethoxycarbonyl-2-indolinone] | 10
7 | CCOC(=O)c1ccc2c(c1)NC(=O)/C2=C(\Nc1ccc(N(CCCN(C)C)C(C)=O)cc1)c1ccccc1 [(g), 3-Z-[1-(4-(N-(3-dimethylamino-propyl)-N-acetyl-amino)-anilino)-1-phenyl-methylene]-6-ethoxycarbonyl-2-indolinone] | 3
8 | CCOC(=O)c1ccc2c(c1)NC(=O)/C2=C(\Nc1ccc(N(CCN(C)C)S(C)(=O)=O)cc1)c1ccccc1 [(h), 3-Z-[1-(4-(N-(2-dimethylamino-ethyl)-N-methylsulphonyl-amino)-anilino)-1-phenyl-methylene]-6-ethoxycarbonyl-2-indolinone] | 10
9 | COC(=O)c1ccc2c(c1)NC(=O)/C2=C(\Nc1ccc(CN(C)C)cc1)c1ccccc1 [(i), 3-Z-[1-(4-(dimethylaminomethyl)-anilino)-1-phenyl-methylene]-6-methoxycarbonyl-2-indolinone] | 30
10 | COC(=O)c1ccc2c(c1)NC(=O)/C2=C(\Nc1ccc(N(CC(=O)N(C)C)C(C)=O)cc1)c1ccccc1 [(j), 3-Z-[1-(4-(N-acetyl-N-dimethylaminocarbonylmethyl-amino)-anilino)-1-phenyl-methylene]-6-methoxycarbonyl-2-indolinone] | 20
11 | CCNCc1ccc(N/C(=C2\C(=O)Nc3cc(C(=O)OC)ccc32)c2ccccc2)cc1 [(k), 3-Z-[1-(4-ethylaminomethyl-anilino)-1-phenyl-methylene]-6methoxycarbonyl-2-indolinone] | 30
12 | COC(=O)c1ccc2c(c1)NC(=O)/C2=C(\Nc1ccc(-c2nccn2C)cc1)c1ccccc1 [(l), 3-Z-[1-(4-(1-methyl-imidazol-2-yl)-anilino)-1-phenyl-methylene]-6-methoxycarbonyl-2-indolinone] | 100
13 | COC(=O)c1ccc2c(c1)NC(=O)/C2=C(\Nc1ccc(N(C)C(=O)CN(C)C)cc1)c1ccccc1 [(m), 3-Z-[1-(4-(N-dimethylaminomethylcarbonyl-N-methyl-amino)-anilino)-1-phenyl-methylene]-6-methoxycarbonyl-2-indolinone] | 20
14 | COC(=O)c1ccc2c(c1)NC(=O)/C2=C(\Nc1ccc(N(CCN(C)C)S(C)(=O)=O)cc1)c1ccccc1 [(n), 3-Z-[1-(4-(N-(2-dimethylamino-ethyl)-N-methylsulphonyl-amino)-anilino)-1-phenyl-methylene]-6-methoxycarbonyl-2-indolinone] | 20
15 | COC(=O)c1ccc2c(c1)NC(=O)/C2=C(\Nc1ccc(N(CCCN(C)C)S(C)(=O)=O)cc1)c1ccccc1 [(o), 3-Z-[1-(4-(N-(3-dimethylamino-propyl)-N-methylsulphonyl-amino)-anilino)-1-phenyl-methylene]-6methoxycarbonyl-2-indolinone] | 10
16 | COC(=O)c1ccc2c(c1)NC(=O)/C2=C(\Nc1ccc(N(CC(=O)N(C)C)S(C)(=O)=O)cc1)c1ccccc1 [(p), 3-Z-[1-(4-(N-dimethylaminocarbonylmethyl-N-methylsulphonyl-amino)-anilino)-1-phenyl-methylene]-6-methoxycarbonyl-2-indolinone] | 20
17 | COC(=O)c1ccc2c(c1)NC(=O)/C2=C(\Nc1ccc(N(C)C(=O)CCN(C)C)cc1)c1ccccc1 [(q), 3-Z-[1-(4-(N-((2-dimethylamino-ethyl)-carbonyl)-N-methyl-amino)-anilino)-1-phenyl-methylene]-6-methoxycarbonyl-2-indolinone] | 20
18 | COC(=O)c1ccc2c(c1)NC(=O)/C2=C(\Nc1ccc(N(CCN(C)C)C(C)=O)cc1)c1ccccc1 [(r), 3-Z-[1-(4-(N-(2-dimethylamino-ethyl)-N-acetyl-amino)-anilino)-1-phenyl-methylene]-6-methoxycarbonyl-2-indolinone] | 10
19 | CNCc1ccc(N/C(=C2\C(=O)Nc3cc(C(=O)OC)ccc32)c2ccccc2)cc1 [(s), 3-Z-[1-(4methylaminomethyl-anilino)-1-phenyl-methylene]-6-methoxycarbonyl-2-indolinone] | 40

Test system: not given
Assay: not given
Settings: not given

Row | SMILES | melting point [°C]
20 | COC(=O)c1ccc2c(c1)NC(=O)/C2=C(\Nc1ccc(Cc2ccccc2)cc1)c1ccccc1 [Example 3(60), 3-Z-[1-(4-benzyl-anilino)-1-phenyl-methylene]-6-methoxycarbonyl-2-indolinone] | 224
